Source: US20060069132A1, “Azolecarboxamide herbicides” (priority 2004, published 2006)

Key:
redroot pigweed = experiment: Test A pre-/postemergence herbicide test; format: in vivo, Amaranthus retroflexus; conditions: for Plant response rating, Pigweed: Postemergence; for Pigweed plant response rating: Preemergence
How it was run: (§1)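 Plants are held in greenhouse about ten days after treatment, then compared with untreated controls and scored 0 (no effect) to 100 (complete control). Preemergence dosing is a directed soil spray on sown sandy loam; postemergence dosing is spray to runoff at 2–10 cm height.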

morningglory [1] = experiment: Test A pre-/postemergence herbicide test; format: in vivo, Ipomoea spp.; conditions: for Plant response rating, Morningglory: Postemergence; for Morningglory plant response rating: Preemergence
How it was run: as §1

ducksalad = experiment: Test B flooded paddy test; format: in vivo, Heteranthera limosa; conditions: 1000 g ai/ha, visual rating, scale 0 to 100 (0 no effect, 100 complete control), 13 to 15 days
How it was run: (§2)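 After treating 2-leaf paddy plants or 2–18 cm postemergence plants (1 to 4 leaves) with formulated chemical, researchers kept them in a greenhouse for 13–15 days. Effects were judged visually versus controls: 0 indicates none, 100 total control.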

Surinam grass = experiment: Test B pre-/postemergence herbicide test; format: in vivo, Urochloa decumbens
How it was run: (§3)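 Plants compared with untreated controls 13–15 days post-treatment and given a visual 0–100 injury score. Applications: preemergence to seeds; postemergence at 1- to 4-leaf (2–18 cm); paddy species flooded, 2-leaf stage. Vehicle non-phytotoxic, surfactant included.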

giant foxtail [2] = experiment: Test B pre-/postemergence herbicide test; format: in vivo, Setaria faberi
How it was run: as §3

wild oat = experiment: Test B postemergence herbicide test; format: in vivo, Avena fatua; conditions: scale 0 (no effect) to 100 (complete control)
How it was run: (§4)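 Treated at 2-leaf (paddy) or 1–4-leaf, 2–18 cm (postemergence); greenhouse 13–15 d; visual score vs control, 0 none to 100 complete control; dash = not tested.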

rice [3] = experiment: Test B flooded paddy test; format: in vivo, Oryza sativa; conditions: 1000 g ai/ha, visual rating, scale 0 to 100 (0 no effect, 100 complete control), 13 to 15 days
How it was run: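 Formulated test chemicals went onto postemergence plants measuring 2 to 18 cm, at one to four leaves. For the paddy assay, species had reached two leaves. Scoring took place 13–15 days later by eye, relative to untreated plants, using 0 for no effect up to 100 for full control.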

morningglory [4] = experiment: Test B pre-/postemergence herbicide test; format: in vivo, Ipomoea coccinea
How it was run: (§5)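 Flooded paddy rice and barnyardgrass were treated at the 2-leaf stage; upland plantings received compound either on sown seed or on 1- to 4-leaf seedlings. All were kept 13–15 days in a greenhouse and scored visually, 0–100, relative to untreated plants.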

lambsquarters = experiment: Test B pre-/postemergence herbicide test; format: in vivo, Chenopodium album; conditions: scale 0 (no effect) to 100 (complete control)
How it was run: as §3

velvetleaf [5] = experiment: Test B pre-/postemergence herbicide test; format: in vivo, Abutilon theophrasti
How it was run: as §3

blackgrass = experiment: Test B postemergence herbicide test; format: in vivo, Alopecurus myosuroides; conditions: scale 0 (no effect) to 100 (complete control)
How it was run: as §2

large crabgrass [6] = experiment: Test A pre-/postemergence herbicide test; format: in vivo, Digitaria sanguinalis; conditions: for Plant response rating, Crabgrass, Large: Postemergence; for Crabgrass, Large plant response rating: Preemergence
How it was run: as §1

wheat = experiment: Test B postemergence herbicide test; format: in vivo, Triticum aestivum; parameters: key to Wheat plant response rating: 0 = no effect, 100 = complete control; conditions: scale 0 (no effect) to 100 (complete control)
How it was run: as §4

barnyardgrass [7] = experiment: Test B flooded paddy test; format: in vivo, Echinochloa crus-galli; conditions: 1000 g ai/ha, visual rating, scale 0 to 100 (0 no effect, 100 complete control), 13 to 15 days
How it was run: as §2

pigweed = experiment: Test B pre-/postemergence herbicide test; format: in vivo, Amaranthus retroflexus
How it was run: as §3

cocklebur = experiment: Test B pre-/postemergence herbicide test; format: in vivo, Xanthium strumarium
How it was run: as §5

giant foxtail [8] = experiment: Test A pre-/postemergence herbicide test; format: in vivo, Setaria faberi; conditions: for Plant response rating, Foxtail, Giant: Postemergence; for Foxtail, Giant plant response rating: Preemergence
How it was run: as §1

large crabgrass [9] = experiment: Test B pre-/postemergence herbicide test; format: in vivo, Digitaria sanguinalis
How it was run: as §3

[10] = system: small flower umbrella sedge; experiment: Test B flooded paddy test; format: in vivo, Cyperus difformis; conditions: 1000 g ai/ha, visual rating, scale 0 to 100 (0 no effect, 100 complete control), 13 to 15 days
How it was run: as §2

barnyardgrass [11] = experiment: Test B pre-/postemergence herbicide test; format: in vivo, Echinochloa crus-galli
How it was run: as §5

velvetleaf [12] = experiment: Test A pre-/postemergence herbicide test; format: in vivo, Abutilon theophrasti; conditions: for Velvetleaf plant response rating: Preemergence, visual rating, 0 to 100 scale (0 no effect, 100 complete control)
How it was run: as §1

rice [13] = experiment: Test B pre-/postemergence herbicide test; format: in vivo, Oryza sativa; conditions: preemergence, 125 g ai/ha; 0 to 100 scale, 0 is no effect, 100 is complete control
How it was run: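 Greenhouse pot assay with simultaneous preemergence (treated seed) and postemergence (2–18 cm seedlings) applications of surfactant-containing, non-phytotoxic solvent formulations. Response scored visually 13–15 days later on a 0–100 scale, 100 meaning complete control.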

corn = experiment: Test B pre-/postemergence herbicide test; format: in vivo, Zea mays
How it was run: as §3

barnyardgrass [14] = experiment: Test A pre-/postemergence herbicide test; format: in vivo, Echinochloa crus-galli; conditions: for Plant response rating, Barnyardgrass: Postemergence; for Barnyardgrass plant response rating: Preemergence
How it was run: as §1

[15] = 500 g ai/ha, 0 to 100 scale, 0 no effect, 100 complete control
[16] = 2000 g ai/ha, 0 to 100 scale, 0 no effect, 100 complete control
[17] = 500 g ai/ha, visual rating, 0 to 100 scale (0 no effect, 100 complete control)
[18] = Postemergence, 500 g ai/ha, visual rating after 13 to 15 days, scale 0 (no effect) to 100 (complete control)
[19] = postemergence, 125 g ai/ha, visual rating, scale 0 (no effect) to 100 (complete control)
[20] = preemergence, 125 g ai/ha, 0 to 100 scale, 0 is no effect, 100 is complete control
[21] = Preemergence, 500 g ai/ha, scale 0 to 100
[22] = Postemergence, 500 g ai/ha, visual rating after 13 to 15 days
[23] = postemergence, 125 g ai/ha, visual rating

CCOC(=O)c1ccc(F)c(NC(=O)c2cc(C(C)(C)C)nn2CC)c1 [Compound 70]
Plant response rating, Pigweed (redroot pigweed; [15]): 60
Plant response rating, Pigweed (redroot pigweed; [16]): 75
Pigweed plant response rating (redroot pigweed; [17]): 0
Pigweed plant response rating (redroot pigweed; [16]): 5
Plant response rating, Morningglory (morningglory [1]; [15]): 25
Plant response rating, Morningglory (morningglory [1]; [16]): 30
Morningglory plant response rating (morningglory [1]; [17]): 20
Morningglory plant response rating (morningglory [1]; [16]): 10
Ducksalad plant response rating (ducksalad): 0
Plant response rating, Surinam Grass (Surinam grass; [18]): 20
Surinam Grass plant response rating (Surinam grass; [19]): 20
Plant response rating, Surinam Grass (Surinam grass; [20]): 40
Plant response rating, Foxtail, Giant (giant foxtail [2]; [18]): 30
Foxtail, Giant plant response rating (giant foxtail [2]; [21]): 100
Foxtail, Giant plant response rating (giant foxtail [2]; [19]): 20
Plant response rating, Foxtail, Giant (giant foxtail [2]; [20]): 90
Plant response rating, Oat, Wild (wild oat; [22]): 20
Oat, Wild plant response rating (wild oat; [23]): 20
Rice plant response rating (rice [3]): 10
Plant response rating, Morningglory (morningglory [4]; [18]): 30
Morningglory plant response rating (morningglory [4]; [19]): 20
Plant response rating, Morningglory (morningglory [4]; [20]): 10
Plant response rating, Lambsquarters (lambsquarters; [22]): 80
Lambsquarters plant response rating (lambsquarters; [23]): 80
Plant response rating, Velvetleaf (velvetleaf [5]; [18]): 60
Velvetleaf plant response rating (velvetleaf [5]; [19]): 20
Plant response rating, Velvetleaf (velvetleaf [5]; [20]): 30
Plant response rating, Blackgrass (blackgrass; [22]): 20
Blackgrass plant response rating (blackgrass; [23]): 10
Plant response rating, Crabgrass, Large (large crabgrass [6]; [15]): 25
Plant response rating, Crabgrass, Large (large crabgrass [6]; [16]): 30
Crabgrass, Large plant response rating (large crabgrass [6]; [17]): 35
Crabgrass, Large plant response rating (large crabgrass [6]; [16]): 45
Plant response rating, Wheat (wheat; [22]): 20
Wheat plant response rating (wheat; [23]): 10
Barnyardgrass plant response rating (barnyardgrass [7]): 10
Plant response rating, Pigweed (pigweed; [18]): 50
Pigweed plant response rating (pigweed; [19]): 30
Plant response rating, Pigweed (pigweed; [20]): 30
Plant response rating, Cocklebur (cocklebur; [18]): 100
Cocklebur plant response rating (cocklebur; [21]): 0
Cocklebur plant response rating (cocklebur; [19]): 50
Plant response rating, Cocklebur (cocklebur; [20]): 0
Plant response rating, Foxtail, Giant (giant foxtail [8]; [15]): 20
Plant response rating, Foxtail, Giant (giant foxtail [8]; [16]): 20
Foxtail, Giant plant response rating (giant foxtail [8]; [17]): 40
Foxtail, Giant plant response rating (giant foxtail [8]; [16]): 55
Plant response rating, Crabgrass, Large (large crabgrass [9]; [18]): 20
Crabgrass, Large plant response rating (large crabgrass [9]; [21]): 100
Crabgrass, Large plant response rating (large crabgrass [9]; [19]): 20
Plant response rating, Crabgrass, Large (large crabgrass [9]; [20]): 100
Sedge, Umbrella plant response rating [10]: 30
Plant response rating, Barnyardgrass (barnyardgrass [11]; [18]): 20
Barnyardgrass plant response rating (barnyardgrass [11]; [21]): 50
Barnyardgrass plant response rating (barnyardgrass [11]; [19]): 20
Plant response rating, Barnyardgrass (barnyardgrass [11]; [20]): 40
Plant response rating, Velvetleaf (velvetleaf [12]; Postemergence, 2000 g ai/ha, 0 to 100 scale, 0 no effect, 100 complete control): 30
Velvetleaf plant response rating (velvetleaf [12]; 500 g ai/ha): 10
Velvetleaf plant response rating (velvetleaf [12]; 2000 g ai/ha): 20
Plant response rating, Rice (rice [13]): 0
Plant response rating, Corn (corn; [18]): 20
Corn plant response rating (corn; [21]): 20
Corn plant response rating (corn; [19]): 20
Plant response rating, Corn (corn; [20]): 10
Plant response rating, Barnyardgrass (barnyardgrass [14]; [15]): 25
Plant response rating, Barnyardgrass (barnyardgrass [14]; [16]): 30
Barnyardgrass plant response rating (barnyardgrass [14]; [17]): 20
Barnyardgrass plant response rating (barnyardgrass [14]; [16]): 20
